From ChEMBL document CHEMBL1201862, “PubChem BioAssay data set” (2004)
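The compound was tested at five concentrations on cells cultured in 96-well plates, with a 48-hour exposure period. GI50 marks 50% less growth.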 Activity calls are given as the source filed them. Cut-off read from the data, not from the text of the source: active = GI50 up to about 1.1 µM and inactive = higher.

What was measured:
Assay in all cases: growth of human tumour cells (NCI), 48 h
[1] = test system: SNB-19
[2] = test system: A549
[3] = test system: SF-295
[4] = test system: MDA-MB-435
[5] = test system: KM12
[6] = test system: UACC-62
[7] = test system: OVCAR-4
[8] = test system: M14
[9] = test system: HOP-62
[10] = test system: SR
[11] = test system: OVCAR-8
[12] = test system: UACC-257
[13] = test system: MDA-MB-231
[14] = test system: NCI/ADR-RES
[15] = test system: NCI-H460
[16] = test system: DU-145
[17] = test system: NCI-H226
[18] = test system: MOLT-4
[19] = test system: T47D
[20] = test system: 786-0

Measured: GI50

CCCC(=O)NC1=C(Cl)C(=O)c2ccccc2C1=O
inactive: [1] 6.89 µM | [2] 4.39 µM | [3] 4.99 µM | [4] 3.42 µM | [5] 3.01 µM | [6] 2.32 µM | [7] 4.51 µM | [8] 3.13 µM | [9] 9.23 µM | [10] 1.83 µM | [11] 5.02 µM | [12] 4.29 µM | [13] 3.94 µM | [14] 3.32 µM | [15] 3.64 µM | [16] 8.32 µM | [17] 7.78 µM | [18] 2.56 µM | [19] 2.25 µM | [20] 4.53 µM

COc1ccc(OC2OC(CO)C(O)C(O)C2O)cc1 (stereo unspecified)
inactive: [1] > 100 µM | [2] > 100 µM | [3] > 100 µM | [4] > 100 µM | [5] > 100 µM | [6] > 100 µM | [8] > 100 µM | [9] > 100 µM | [10] > 100 µM | [11] > 100 µM | [12] > 100 µM | [13] > 100 µM | [14] > 100 µM | [15] > 100 µM | [16] > 100 µM | [17] > 100 µM | [18] > 100 µM | [19] > 100 µM | [20] > 100 µM

CC12CC1C(c1cccc([N+](=O)[O-])c1)(c1cccc([N+](=O)[O-])c1)N=N2 (stereo unspecified)
inactive: [1] 32.5 µM | [2] 54.7 µM | [3] 57 µM | [4] 36.5 µM | [5] 19.6 µM | [6] 15.9 µM | [7] 23.1 µM | [8] 38.9 µM | [9] > 100 µM | [10] 19.6 µM | [11] 25.1 µM | [12] 28.1 µM | [13] 16.5 µM | [14] 22.9 µM | [15] 27.4 µM | [16] 24.3 µM | [17] 25.3 µM | [18] 28.3 µM | [19] 25.8 µM | [20] 20.7 µM

CC(=O)Oc1c2c(c3n(c1=O)CCCC3)C(=O)N(c1ccccc1)C2=O
inactive: [1] > 100 µM | [2] > 100 µM | [3] 61 µM | [4] 46.9 µM | [5] > 100 µM | [6] 63.7 µM | [7] 54.3 µM | [8] > 100 µM | [9] > 100 µM | [10] > 100 µM | [11] > 100 µM | [13] > 100 µM | [14] 65.3 µM | [15] > 100 µM | [16] > 100 µM | [17] 60 µM | [18] > 100 µM | [19] 87.5 µM | [20] > 100 µM

C/C(=N\N=C(\N)OB(F)F)c1ccccn1
inactive: [1] > 100 µM | [2] > 100 µM | [3] 66.8 µM | [4] > 100 µM | [5] > 100 µM | [6] 82.2 µM | [7] 35 µM | [8] > 100 µM | [9] 37.5 µM | [10] 76.6 µM | [11] 75 µM | [12] > 100 µM | [13] 24.6 µM | [14] > 100 µM | [15] 40.8 µM | [16] > 100 µM | [17] 40.8 µM | [19] > 100 µM | [20] 40.4 µM

Nc1ccc(C(=O)N2CCC[C@H]2CO)c(N)c1
inactive: [1] > 100 µM | [2] > 100 µM | [3] > 100 µM | [4] > 100 µM | [5] > 100 µM | [6] > 100 µM | [7] > 100 µM | [8] > 100 µM | [9] > 100 µM | [10] > 100 µM | [11] > 100 µM | [12] > 100 µM | [13] > 100 µM | [14] > 100 µM | [15] > 100 µM | [16] > 100 µM | [17] > 100 µM | [18] > 100 µM | [19] > 100 µM | [20] > 100 µM

CC1=NN(c2nc(N)nc(-c3ccccc3S(N)(=O)=O)n2)C(C)(C)C1
inactive: [3] 5.64 µM | [4] 37.8 µM | [5] 29.8 µM | [7] 13.2 µM | [8] 6.7 µM | [9] 13 µM | [10] 5.85 µM | [11] 16 µM | [12] 30.2 µM | [13] 22.2 µM | [14] 9.33 µM | [15] 5.07 µM | [16] 7.38 µM | [17] 9.2 µM | [18] 5.19 µM | [19] 23.8 µM | [20] 8.79 µM

Cn1nnnc1SC(F)(F)c1nc2ccccc2o1
inactive: [2] > 100 µM | [3] > 100 µM | [4] > 100 µM | [5] 35.9 µM | [6] > 100 µM | [7] > 100 µM | [8] > 100 µM | [9] > 100 µM | [10] > 100 µM | [11] > 100 µM | [12] > 100 µM | [13] > 100 µM | [14] > 100 µM | [15] > 100 µM | [16] > 100 µM | [17] > 100 µM | [18] 24.1 µM | [19] > 100 µM | [20] > 100 µM

CC(=O)O[C@H]1C[C@H]2[C@@H]([C@H](OC(C)=O)C[C@@H]3CC4(CC[C@@]32C)OOC2(CCCCC2)OO4)[C@@H]2CC[C@H]([C@H](C)CCC(=O)O)[C@@]12C
inactive: [1] 6.71 µM | [2] 2.66 µM | [3] 5.93 µM | [4] 5.75 µM | [5] 3.56 µM | [7] 2.55 µM | [8] 12 µM | [9] 2.45 µM | [10] 2.44 µM | [11] 4.08 µM | [12] 11.4 µM | [13] 14.1 µM | [14] 4.88 µM | [15] 4.43 µM | [16] 10.4 µM | [17] 7.29 µM | [18] 9.02 µM | [19] 7 µM | [20] 11.3 µM

COC(=O)CCC(C)[C@H]1CCC2C3C(C[C@H](OC(C)=O)[C@@]21C)[C@@]1(C)CCC2(C[C@H]1C[C@H]3OC(C)=O)OOC1(CCCCCCC1)OO2 (stereo partly specified)
inactive: [1] > 100 µM | [2] 4.56 µM | [3] 6.38 µM | [4] 18.4 µM | [5] 4.88 µM | [7] 39 µM | [8] 27.9 µM | [9] 4.99 µM | [10] 2.29 µM | [11] 4.82 µM | [12] 5.35 µM | [13] 8.26 µM | [14] > 100 µM | [15] 3.24 µM | [16] 6.58 µM | [17] 6.79 µM | [18] 3.12 µM | [19] 2.02 µM | [20] 6 µM
